Source: patent US8138194B2, “Fused bicyclic pyrimidine compounds as aurora kinase inhibitors” (National Health Research Institutes, priority 2008, dated 2012)
“And” between values parts separate entries of the source, which are not always exact repeats. Identical values can stand only once.

What was measured:
HCT-116 cells = assay: HCT-116 cell viability MTS assay; type: cell-based; conditions: Homo sapiens, read-out: IC50 (concentration of a test compound which causes 50% of the cell death); HCT-116, 96-h incubation, MTS
Method: HCT-116 cell viability was examined by the MTS assay (Promega, Madison, Wis., USA). 2000 HCT-116 cells in 100 μL McCoy's 5a medium were seeded in each well of a 96-well plate. After 96-h incubation with a test compound, the cells were incubated with 20 μL of a MTS/PMS mixture (MTS/PMS ratio: 20: 1) for 2 h at 37° C. in a humidified incubator with 5% CO2 to allow viable cells to convert the tetrazolium salt (MTS) into formazan. The amount/concentration of formazan, which indicates the number of live cells, was determined by measuring the absorbance at 490 nm using a PerkinElmer Victor2 plate reader (PerkinElmer, Shelton, Cont., USA).

[1] = target: T1, GST-tAurora A (123-401aa) fusion protein (Homo sapiens, UniProt O14965); assay: Aurora Kinase A luminescent kinase assay; type: biochemical; conditions: IC50 (concentration of a test compound at which activity of 50% of Aurora A is inhibited)
T1 construct: GST-tAurora A (123-401aa) fusion protein; made in house; host or cells: Sf9 insect cells (baculovirus, pBacPAK8)
T1 sequence (O14965 123-401): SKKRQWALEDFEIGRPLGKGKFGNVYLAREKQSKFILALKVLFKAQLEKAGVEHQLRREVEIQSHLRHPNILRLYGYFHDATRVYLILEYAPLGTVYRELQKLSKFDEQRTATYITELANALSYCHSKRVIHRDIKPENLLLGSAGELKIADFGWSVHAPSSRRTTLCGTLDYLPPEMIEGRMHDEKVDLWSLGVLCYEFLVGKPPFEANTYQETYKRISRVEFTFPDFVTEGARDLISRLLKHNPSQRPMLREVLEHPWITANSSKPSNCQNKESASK

PLK4 = target: T2, PLK4 (Homo sapiens, UniProt O00444); assay: Inhibition of other protein kinases: PLK4; type: biochemical
T2 sequence (O00444 1-970): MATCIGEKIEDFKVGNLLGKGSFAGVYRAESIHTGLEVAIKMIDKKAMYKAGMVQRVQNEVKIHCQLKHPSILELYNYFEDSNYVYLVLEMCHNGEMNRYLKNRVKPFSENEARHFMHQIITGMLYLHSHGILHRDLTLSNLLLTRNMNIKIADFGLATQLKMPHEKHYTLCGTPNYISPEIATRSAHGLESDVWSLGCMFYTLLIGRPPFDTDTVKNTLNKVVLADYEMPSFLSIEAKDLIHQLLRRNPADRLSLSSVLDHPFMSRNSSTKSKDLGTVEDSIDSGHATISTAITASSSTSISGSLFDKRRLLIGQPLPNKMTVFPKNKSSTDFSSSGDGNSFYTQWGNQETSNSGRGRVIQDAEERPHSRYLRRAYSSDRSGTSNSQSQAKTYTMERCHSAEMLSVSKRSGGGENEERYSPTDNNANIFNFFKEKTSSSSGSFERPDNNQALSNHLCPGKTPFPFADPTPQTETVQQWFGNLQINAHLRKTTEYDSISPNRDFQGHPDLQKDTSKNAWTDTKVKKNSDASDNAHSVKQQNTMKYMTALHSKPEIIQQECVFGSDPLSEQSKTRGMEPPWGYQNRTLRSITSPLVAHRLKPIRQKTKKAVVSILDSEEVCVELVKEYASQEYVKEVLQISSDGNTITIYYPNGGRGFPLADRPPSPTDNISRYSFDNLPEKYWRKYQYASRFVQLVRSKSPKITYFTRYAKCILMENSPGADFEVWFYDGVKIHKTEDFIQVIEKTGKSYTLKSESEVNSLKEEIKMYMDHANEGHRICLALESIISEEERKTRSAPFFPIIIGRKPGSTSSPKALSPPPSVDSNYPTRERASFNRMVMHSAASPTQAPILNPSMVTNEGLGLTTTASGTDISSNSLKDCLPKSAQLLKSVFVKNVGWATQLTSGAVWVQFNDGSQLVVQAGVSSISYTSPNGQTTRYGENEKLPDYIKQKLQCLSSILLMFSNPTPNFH

PDGFRB = PDGFRB (Homo sapiens, UniProt P09619); assay: Inhibition of other protein kinases: PDGFRB; type: biochemical
Sequence of PDGFRB (P09619 33-1106, species assumed): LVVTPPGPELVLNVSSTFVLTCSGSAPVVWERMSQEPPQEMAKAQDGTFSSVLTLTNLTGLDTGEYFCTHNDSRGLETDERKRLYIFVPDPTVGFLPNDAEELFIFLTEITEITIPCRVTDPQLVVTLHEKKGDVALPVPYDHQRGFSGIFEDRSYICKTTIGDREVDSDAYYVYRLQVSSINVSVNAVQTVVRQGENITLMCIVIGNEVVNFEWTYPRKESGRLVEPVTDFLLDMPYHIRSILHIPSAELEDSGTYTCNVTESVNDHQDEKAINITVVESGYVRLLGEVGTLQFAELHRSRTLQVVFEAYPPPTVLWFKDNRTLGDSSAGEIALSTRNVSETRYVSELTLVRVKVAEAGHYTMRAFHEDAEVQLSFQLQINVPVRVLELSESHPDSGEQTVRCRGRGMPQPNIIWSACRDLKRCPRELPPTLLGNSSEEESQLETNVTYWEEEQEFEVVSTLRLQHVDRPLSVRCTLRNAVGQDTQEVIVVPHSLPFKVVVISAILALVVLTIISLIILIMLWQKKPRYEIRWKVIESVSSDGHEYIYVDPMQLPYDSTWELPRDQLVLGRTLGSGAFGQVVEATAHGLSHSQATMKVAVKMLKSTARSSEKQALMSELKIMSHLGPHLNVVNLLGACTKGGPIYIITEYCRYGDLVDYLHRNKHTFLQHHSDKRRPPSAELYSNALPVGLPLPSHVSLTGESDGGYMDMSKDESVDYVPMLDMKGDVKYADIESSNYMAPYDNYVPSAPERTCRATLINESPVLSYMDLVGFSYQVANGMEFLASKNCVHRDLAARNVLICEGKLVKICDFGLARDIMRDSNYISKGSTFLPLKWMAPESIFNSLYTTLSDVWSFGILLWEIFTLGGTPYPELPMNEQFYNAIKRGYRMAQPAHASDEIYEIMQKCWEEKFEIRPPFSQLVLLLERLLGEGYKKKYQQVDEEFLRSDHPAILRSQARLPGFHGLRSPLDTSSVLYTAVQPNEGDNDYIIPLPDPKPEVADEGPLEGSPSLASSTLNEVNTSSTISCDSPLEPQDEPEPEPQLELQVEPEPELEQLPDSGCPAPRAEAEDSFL

FLT3 = target: T3, FLT3 (Homo sapiens, UniProt P36888); assay: Inhibition of other protein kinases: FLT3; type: biochemical
T3 sequence (P36888 27-993): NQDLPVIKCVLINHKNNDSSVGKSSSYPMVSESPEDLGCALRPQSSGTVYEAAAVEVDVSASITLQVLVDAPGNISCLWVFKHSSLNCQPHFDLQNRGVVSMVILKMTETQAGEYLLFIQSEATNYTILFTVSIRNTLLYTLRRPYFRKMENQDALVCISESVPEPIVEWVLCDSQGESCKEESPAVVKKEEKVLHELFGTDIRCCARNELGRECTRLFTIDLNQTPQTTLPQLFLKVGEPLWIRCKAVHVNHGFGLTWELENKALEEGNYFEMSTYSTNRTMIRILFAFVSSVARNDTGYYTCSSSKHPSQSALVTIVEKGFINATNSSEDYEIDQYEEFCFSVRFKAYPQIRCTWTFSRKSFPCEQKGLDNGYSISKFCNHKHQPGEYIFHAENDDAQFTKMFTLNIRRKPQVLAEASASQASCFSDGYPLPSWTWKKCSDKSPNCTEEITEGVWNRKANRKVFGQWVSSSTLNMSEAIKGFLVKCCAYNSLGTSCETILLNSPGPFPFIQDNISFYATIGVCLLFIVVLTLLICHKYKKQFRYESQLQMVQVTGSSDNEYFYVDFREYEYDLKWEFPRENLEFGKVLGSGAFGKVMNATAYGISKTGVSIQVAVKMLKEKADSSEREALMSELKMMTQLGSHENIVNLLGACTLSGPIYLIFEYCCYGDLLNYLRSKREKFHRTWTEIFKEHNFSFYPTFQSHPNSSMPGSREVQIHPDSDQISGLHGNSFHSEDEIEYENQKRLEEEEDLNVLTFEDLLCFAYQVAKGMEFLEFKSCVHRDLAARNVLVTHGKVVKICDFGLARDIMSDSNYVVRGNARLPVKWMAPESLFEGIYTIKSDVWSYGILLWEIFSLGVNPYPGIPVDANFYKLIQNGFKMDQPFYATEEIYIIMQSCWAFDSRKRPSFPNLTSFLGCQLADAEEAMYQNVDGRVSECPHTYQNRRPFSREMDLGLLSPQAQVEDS

IC50 [1]: 45 to 400 nM and < 1000 nM | inhibits the activity of PLK4 (PLK4): inhibits | inhibits the activity of PDGFRB (PDGFRB): inhibits | inhibits the activity of FLT3 (FLT3): inhibits
Structure (SMILES): O=C(Nc1ccccc1)Nc1ccc(CCNc2ncnc3oc(-c4ccccc4)c(Cl)c23)cc1 [Compound 82]
IC50 (HCT-116 cells): 100 to 900 nM
